This passage reports IC50 results from publication PMC5509998, “Autotaxin–lysophosphatidic acid–LPA 3 signaling at the embryo‐epithelial boundary controls decidualization pathways” (The EMBO Journal, 2017).

Each structure is given as a SMILES string.

The target of this test is T1, autotaxin (ATX, ENPP2) (Mus musculus, UniProt Q9R1E6).
T1 construct: recombinant ATX; mouse ENPP proteins expressed in HEK293A cells (culture supernatants)
Description: colorimetric phosphodiesterase assay with p-nitrophenyl TMP as substrate. It is filed as biochemical.

In the case of `CCCCCn1c(-c2ccc(C(=O)NCCN3CCOCC3)cc2)cc(=O)n2cc(-c3ccc(Cl)cc3)nc12` [S15-00826], the IC50 is approximately 38 nM.

Usually IC50 stands for the concentration needed to halve the response being measured. A lower IC50 goes with greater potency in that assay.
